# Patent publication US8124069B2, “Immunogenic peptides” (Rush University Medical Center, priority 2002, dated 2012)
# Where “and” joins values, the source holds several entries; their conditions need not be identical. Equal values may be shown once.
# What was measured:
# HLA-A2.1 = HLA-A2.1 (Homo sapiens, UniProt P04439, D140Y/D185E/D98H/E176V/E277Q/G131W/G231S/I119V/I121R/I166T/I218V/L300P/L318F/N151K/N90K/P208A/P217A/Q86G/Q94H/R138H/R169H/T345S); experiment: Peptide binding to HLA-A2.1+ T2 cells under Brefeldin A treatment (peptide/HLA-A2.1 complex stability)
# [1] = tested on: HLA-A2.1 positive ML-2 cells; experiment: Cytotoxicity of peptide-specific CTLs against ML-2 cells (51Cr release); type: cell-based, human; conditions: for Cytotoxicity of peptide-specific CTLs against ML-2 cells (%): target:effector 1:60
# From the text: The present example illustrates that that the present peptides are capable of inducing a T-lymphocyte response. In this example, antigen presenting cells were pulsed at 150 micrograms of each peptide per 1 million antigen presenting cells with the following amino acid sequences: […]
# dendritic cells = experiment: Phenotypic analysis of dendritic cells matured with maturation factors; type: cell-based, human; conditions: DCs matured during last three days of culture
# Procedure: Immature DCs were generated according to modified protocols of Romani et al. (1994) and Bakker et al. (1995). Briefly, fresh or frozen/thawed CD14+ cells were cultured in RPMI 1640 medium (Gibco-Life Technologies) supplemented with 10% FCS, 1,000 U/ml GM-CSF and 1,000 U/ml IL-4. The cell cultures were fed with fresh medium and GM-CSF and IL-4 every other day and cell differentiation was monitored by light microscopy. On day 7, the cultures were supplemented with different combinations of DC maturation factors such as lipopolysaccharide (100 U/ml), TNF-α (10 ng/ml), or IFN-α (1,000 U/ml) plus TNF-α (10 ng/ml). After three days of incubation, mature DCs (mDC) were harvested and evaluated for their phenotypes by flow cytometry. The maturation factor(s) yielding optimal DC maturation was determined and used to generate mDCs for peptide pulsing in upcoming studies. In this example, immature DCs obtained by the culture of CD 14+ monocytes with GM-CSF (1,000 U/ml) and IL-4 (1,000 U/ml) were induced to undergo maturation by incubation with LPS (100 Units/ml), TNF-α10 ng/ml) or TNF-α (10 ng/ml)+IFN-α50 ng/ml) during the final three days of the culture period. […] The highest up-regulation of the co-stimulatory (CD80 and CD86) and HLA-A2.1 MHC class I molecules was detected on DCs treated with TNF-α+IFN-α (Table 5).
# [2] = tested on: effector cells (T lymphocytes); conditions: APC: T2; 2 stims
substance,measurement,setting,value
"ALISGDSPV (listed as Homo sapiens) [SEQ ID NO: 16, modified CD33 peptide]","binding to HLA-A2.1 on T2 cells, in words",HLA-A2.1,good and prolonged stable binding
same,immunogenicity in similar experiments,[1],immunogenic
TNF-α,"CD80 expression, mean channel fluorescence (MCF)",dendritic cells,107
same,"CD86 expression, mean channel fluorescence (MCF)",dendritic cells,96
same,"HLA-A2.1 expression, mean channel fluorescence (MCF)",dendritic cells,475
"YIISGDSPV (listed as Homo sapiens) [SEQ ID NO: 3, modified CD33 peptide]",Cytotoxicity of peptide-specific CTLs against ML-2 cells (%),"[1]; APC: DC, 2 stimulations, different donors",37%
"YIISGISPV (listed as Homo sapiens) [SEQ ID NO: 6, modified CD33 peptide]","binding to HLA-A2.1 on T2 cells, in words",HLA-A2.1,good and prolonged stable binding
"YLALCLCLI (listed as Homo sapiens) [SEQ ID NO: 1, modified CD33 fragment peptide]","Expression level of CD4 (T helper), mean fluorescence intensity",[2],81 and 57
same,"Expression level of CD45RO (Memory), mean fluorescence intensity",[2],1262 and 1432
same,"Expression level of CD95 (Activation), mean fluorescence intensity",[2],99 and 102
same,Cytotoxicity of peptide-specific CTLs against ML-2 cells (%),"[1]; APC: T2, 2 stimulations, donors F, G",21% and 34%
same,Cytotoxicity of peptide-specific CTLs against ML-2 cells (%),"[1]; APC: T2, 3 stimulations, donors F, G",36% and 64%
"YLISGDSPV (listed as Homo sapiens) [SEQ ID NO: 7, modified CD33 peptide]","binding to HLA-A2.1 on T2 cells, in words",HLA-A2.1,good and prolonged stable binding
